Measurements as given in ChEMBL document CHEMBL3507680, “University of Dundee, Gates Library screen for HepG2 cell viability”.

Assay: Human HepG2 cell viability assay in 384 well format
Type: toxicity, cell-based
Parameters: dose 125 nL, time 70.5 hour; cytotoxicity at 70.5 h: concentration not given beside the values
Conditions: HepG2 cells, read-out: Inhibition

Structure (SMILES) | cytotoxicity at 70.5 h [%]
COc1ccsc1C(=O)NCCN1CCOCC1 | -7.25
OC1(CNc2ccc(F)cc2)CCNCC1 | -7.97
O=C(CC(SC1CCCCC1)C(=O)O)c1ccc(Br)cc1 (centres undefined) | 0.38
Cc1ccc(NCC2(O)CCNCC2)cc1C | -1.72
O=C(CN1CCCCC1)Nc1cc(C(F)(F)F)ccc1-n1cccc1 | -9.88
O=c1c2ccccc2nc2n1C(CSc1ccc(Cl)cc1Cl)CN2 (centres undefined) | 29.6
CC(=O)c1sc(Nc2ccc(Cl)cn2)nc1C | 31.3
CC(C)CSCCN1CCCN(S(C)(=O)=O)CC1 | 9.07
CN(CC(=O)NCC(F)(F)F)C(=O)c1ccc(C(=O)OC(C)(C)C)cc1 | -0.193
O=S(=O)(c1cc(F)ccc1F)N1CCCC1c1ccncc1 (centres undefined) | -3.85
CN(C(=O)NC1CC1)C1CCN(c2ccc(Cl)cc2)CC1 | -7.5
CN(C(=O)Nc1ccncc1)C1CCN(c2ccc(Cl)cc2)CC1 | 1.01
Cn1cc(C2CCCN2C(=O)c2cnc(-c3cccs3)s2)cn1 (centres undefined) | 22.5
CC1CCc2nc(NS(=O)(=O)c3cnn(C)c3)sc2C1 (centres undefined) | 0.918
OCc1c(Cl)ncn1-c1ccc(F)cc1 | 2.53
Cc1ccc(-n2cnc(Cl)c2CO)cc1 | -3.28
OCc1c(Cl)ncn1-c1ccccc1 | 0.513
Cc1cccc(-n2cnc(Cl)c2CO)c1 | -0.946
c1ccc(-c2nc(CCNCc3ccccn3)co2)cc1 | -1.18
COc1ccc(Br)cc1SCCC(N)=O | -0.68
Cc1ccccc1C(C#N)NC(=O)CCCOc1cccnc1 (centres undefined) | -0.163
CN(C(=O)CSc1ncc[nH]1)c1ccccc1 | 31.6
CC(C)CSCCN1CCN(S(C)(=O)=O)CC1 | 0.763

Structure (SMILES) | cytotoxicity at 70.5 h [%]
Cc1cc(C(=O)NCCc2nc3c(s2)CCCC3)n(C)n1 | -3.4
CN(CC1CCOC1)c1ncc(Br)cn1 (centres undefined) | -3.89
CCN(CC)C(=O)CSc1ncc[nH]1 | -8.92
Cc1cc(Br)cnc1N(C)CC1CCOC1 (centres undefined) | -3.38
CCOc1nnc(CN(CC)CC(=O)NC(C)C)s1 | -1.99
CN1CCN(C)c2cc(NC(=O)c3cc[nH]n3)ccc2C1 | 6.77
COc1ccc(C(C)NCc2cscn2)cc1Cn1cccn1 (centres undefined) | -7.35
CC(C)(C)c1nc(CN(Cc2ccccc2F)C2CCCCC2)no1 | -8.5
CC(O)CNC(=O)Nc1ccc(Br)cc1Br (centres undefined) | -3.83
NC(=O)c1cccc(CS(=O)(=O)CC(O)Cn2cccn2)c1 (centres undefined) | -4.59
Cc1ccc(S(=O)(=O)Nc2ccc(N3CCSCC3)c(C(=O)O)c2)s1 | -10.2
O=S(=O)(Cc1cccc(Cl)c1)CC(O)Cn1cccn1 (centres undefined) | -5.5
CC1(C)COCCN1C(=O)c1ccc(Cn2cncn2)cc1 | -9.35
CC(C)c1nnc(NC(=O)C2CSCN2C(=O)C2CCC2)s1 (centres undefined) | -8.18
COc1ccccc1Cc1nnc(SCCS(C)(=O)=O)o1 | -7.42
Cc1nnc(NC(=O)C2CSCN2C(=O)C2CCCC2)s1 (centres undefined) | -3.18
C[S+]([O-])CCNC(=O)N1CCSC(C)(C)C1 (centres undefined) | -1.1
CCc1cc2c(N3CCCC(c4cc(C(N)=O)[nH]n4)C3)ncnc2s1 (centres undefined) | -4.85
O=C(COc1ccccc1Br)N1CCOc2ccncc21 | -3.18
CC(=O)NCCNC(=O)Nc1ccc(Br)cc1C(C)C | 15.2
CC(=O)Nc1cc(C(C)(C)C)sc1C#N | -3.4
Cc1cnn(CC(C)NCc2cccnc2)c1 (centres undefined) | -5.07
CN1CCOC(CNCC(=O)NCCCc2ccccc2)C1 (centres undefined) | 4.87

Structure (SMILES) | cytotoxicity at 70.5 h [%]
CN(CC(=O)NCC1CCCCC1)S(=O)(=O)c1cccnc1 | -3.39
Cc1cc(C(=O)NC2CCN(c3nnc(C)c(C)c3C#N)CC2)no1 | -6.5
Cc1nccc(CNC(=O)NCCC(=O)N2CCCc3ccccc32)n1 | -2.13
Cc1cc(C(=O)NCCC(=O)N2CCCc3ccccc32)no1 | -4.18
COc1cc(CNC(=O)COC2CCCCC2)ccc1O | -4.46
CCc1ccc(C(=O)N2CCCCC2CNS(C)(=O)=O)o1 (centres undefined) | -2.32
CN1N=C(C(=O)NCCc2ccc(OC3CCCC3)cc2)CCC1=O | 1.04
Cn1cc(C(=O)NCc2ccc(OC3CCCCC3)nc2)ccc1=O | -7.34
COc1ccccc1CN(C)C(=O)C[S+]([O-])Cc1cc(C)on1 (centres undefined) | -1.97
Cc1nnc(NC(=O)NCCN(C(=O)OC(C)(C)C)C2CC2)s1 | -4.34
Cn1cc(C(=O)NCCc2ccc(OC3CCCC3)cc2)ccc1=O | 1.62
CC1CCN(Cc2ccccc2CNC(=O)C2CNC(=O)N2)CC1 (centres undefined) | -4.5
COc1ccc(CN2CC(n3cccn3)C2)cc1F | -2.24
COc1ccccc1CCNC(=O)CNCC1CN(C)CCO1 (centres undefined) | -3.47
Cc1cc(CNC(=O)NCCCC(=O)N2CCc3ccccc32)no1 | -2.16
Cc1cc(C(=O)Nc2ccc(OCCN3CCN(C)CC3)cc2)[nH]n1 | 0.21
COc1ccc(CN(C)C(=O)CN2CC(n3cc(C)cn3)C2)cc1F | -2.77
CN(CCc1ccccn1)C(=O)Cn1cc(-c2ccccc2)nn1 | -3.22
CC(C)c1nn(C)c(N(C)C)c1CNCc1ccnc(N(C)C)c1 | -0.315
Cc1nsc(N2CCCN(C(=O)CCc3ccsc3)CC2)n1 | -2
COc1ccc(CCC(=O)N2CCN(c3nc(C)ns3)CC2)cc1 | -0.82
CCc1noc(CN2CCN(C(=O)OC(C)(C)C)C(C)C2)n1 (centres undefined) | 2.89
CN1CCOC(CNCC(=O)NCCc2ccc(F)cc2)C1 (centres undefined) | -3.15

Structure (SMILES) | cytotoxicity at 70.5 h [%]
CNC(=O)c1cccc(CN2CCC(N(C)Cc3noc(C)n3)C2)c1 (centres undefined) | -4.76
CCc1ccc(C(C)NCc2nccn2Cc2ccccc2)o1 (centres undefined) | -9.96
COCCCn1ccc(NC2CCSCC2)n1 | -8.74
CC(C)(C)C(=O)NCCCc1nc2ccccc2[nH]1 | -11.6
O=C(NCCNc1ncccn1)NCCc1c(F)cccc1F | -13.1
O=C(NCCNc1ncccn1)c1ccc(OCc2ccccc2)nc1 | -13.5
Cc1cc(CNC(=O)Nc2ccc(C(=O)NC3CC3)cc2)no1 | -14.3
COC(=O)CCNC(=O)c1ccc(OCc2ccccc2)nc1 | -6.92
Cc1nnc(CSc2n[nH]c(-c3ccccn3)n2)o1 | -7.45
N#CC1COCCN1S(=O)(=O)c1ccc2ccccc2c1 (centres undefined) | -1.81
Cn1ncc2c(=O)[nH]c(N3CCCC3c3cccc(Cl)c3)nc21 (centres undefined) | -1.55
CC(C)NC(=O)NC(C)c1ccc(-c2ccncc2)cc1 (centres undefined) | -7.15
Cc1cscc1C(=O)Nc1cncnc1N(C)C | -7.99
N#Cc1cccc(S(=O)(=O)N(CC2CCC2)c2cn[nH]c2)c1 | -8.03
CCc1nc(CC)n(CC(=O)N(CC)CC)n1 | -8.83
CC1CN(C(=O)c2sccc2Br)CCO1 (centres undefined) | -10.9
Cc1ccc2c(c1)C(NCc1ccccn1)CC2 (centres undefined) | -12.6
CC(C)c1nn(C)cc1CNCc1cccnc1N(C)C | 2.18
CC(C)c1nn(C)cc1CNCc1ccnc(N(C)C)c1 | -7.83
Cc1n[nH]cc1CNCC(O)c1ccc(F)c(F)c1 (centres undefined) | -7.55
